The nature of series [1]: Peripheral effects (heart rate by ECG, potassium, glucose) of Compound 03-5 with or without nadolol in healthy volunteers. In kind it is in vivo, human. The procedure: Healthy volunteers were enrolled into 2 cohorts in a study to undertake within-subject dose titration of Compound 03-5 and/or nadolol in order to explore doses/dose combinations that mitigate peripheral effects of Compound 03-5, e.g. on heart rate, while preserving possible central effects of Compound 03-5 on cerebral perfusion and pupillary light reflex.
Eight healthy subjects aged 18-50 years were enrolled into Cohort D1 and received escalating doses of Compound 03-5 (3-12 mg) administered once daily 2 hours follow pre-administration of nadolol (1-40 mg). On all dosing days, study drug(s) were administered orally after an overnight fast of at least 8 hours.
(§1) In Cohort D2, 8 healthy volunteers aged 55-75 years were admitted on Day −1 for a 5-day confinement period at the research facility. During this confinement, subjects received escalating doses of open label Compound 03-5 (1-10 mg) once-daily from Day 1 through Day 3 2 hours after pre-administration of open-label nadolol (3 mg) one each for the 3 dosing days according to the schematic in FIG. 17. Subjects remained in-residency until all study procedures are completed on Day 4.

Series [2] in a line: CANTAB cognition battery, Cohort D2 (Compound 03-5 with 3 mg nadolol). In kind it is in vivo, human. Here is the method: as §1
Compound 03-5 dose administration. Compound 03-5 was administered as escalating doses on Day 1 (1 mg), Day 2 (3 mg) and Day 3 (10 mg). CANTAB was conducted twice in all subjects on the day prior to start of dosing (Day −1) to familiarize subjects with the platform, and prior to dosing and approximately 3 hours after Compound 03-5 administration on Days 1, 2, and 3.

Series [3] can be described thus: Visual verbal learning test (VVLT). Format: in vivo, human. Conditions: single dose; crossover study with placebo. Here is the method:
The visual verbal learning test (VVLT) is a test for learning and memory (de Haas 2009). Subjects are presented 30 words on a screen, one at a time, for 1 second with a 1-second interval between words over a total of […]. This is repeated in 3 trials. After each trial, subjects are asked to recall as many words as they can. After the third trial, there is a delay of 2.5 hours and subjects are then tested once for delayed recall. […] The effect for clenbuterol is an improvement in approximately 1.5 to 2 correctly recalled words, which is clinically meaningful. Since this was a crossover study, everyone who completed Part A was dosed with the 3 agents plus placebo.

The conditions of series [4]: 80 μg clenbuterol alone, single dose, patients.
Series [5] is described as follows: Facial Expression Recognition Task (FERT), crossover study of clenbuterol with 1 mg nadolol vs placebo. Format: in vivo, human. The settings on record: clenbuterol co-administered with low-dose nadolol vs placebo; patients. The text has this:
The Facial Expression Recognition Task (FERT) assesses the recognition of facial emotions. […] Different intensity levels of each emotion are presented, which increases the ambiguity of the facial expression and the sensitivity of the task.

A short description of series [6]: Immediate word recall test (CANTAB), crossover study of clenbuterol with 1 mg nadolol vs placebo. The settings on record: 80 μg clenbuterol with 1 mg nadolol once daily 14 days vs placebo; patients with neurodegenerative disorders. Format: in vivo, human. The text has this:
The immediate word recall test measures the ability to encode and subsequently retrieve verbal information. Eighteen (18) words are presented, and subjects are subsequently asked to recall them; this is repeated 2 times.

Series [7] is described as follows: Cerebral blood flow / cerebral perfusion by MRI-ASL after clenbuterol (with or without nadolol) or pindolol. Conditions: for cerebral blood flow measured by MRI-ASL (FIG. 2): healthy volunteers, single dose, dose not stated in legend.
The nature of series [8]: Adaptive tracking test (visuomotor coordination and vigilance). Format: in vivo, human. The settings on record: single dose 160 μg clenbuterol. The text has this: Adaptive tracking measures visuomotor coordination and vigilance. In this test, the subject uses a joystick to move a small dot so that it stays within a continuously moving circle on a computer screen (Boland 1984). During the test, the speed of the circle is adjusted in response to the subject's ability to keep the dot in the circle, ensuring that the test is adapted to the individual subject. […] The improvement shown by subjects is in the same range as that seen with subjects treated with the acetylcholinesterase inhibitor donepezil, which is in clinical use for the treatment of mild to moderate AD (Groeneveld 2016).

Series [9] in a line: Cerebral blood flow after a single dose of Compound 03-5 with or without nadolol. Format: in vivo, human. Conditions: single dose Compound 03-5 in the absence or presence of 3 mg nadolol. The text has this:
Data are plotted as mean (±SEM) percent change in cerebral blood flow from baseline in brain regions of interest for movement (the precentral gyrus) and mood, anhedonia and cognition (hippocampus, thalamus, amygdala).

Setting [10] is: monotherapy Compound 03-5 0.3-6 mg, healthy volunteers.

The structures appear in SMILES notation. Entries after “also recorded” stand apart in the source; their conditions may differ.

Consider `CC(C)(C)NCC(O)COc1cccc2c1CC(O)C(O)C2` (centres unmarked) [nadolol], for which, in [1] (3 mg nadolol, cohort D2), the “effect of nadolol on blood potassium decrease induced by Compound 03-5” value is “inhibited” and the “effect of nadolol on heart rate increase induced by Compound 03-5” value is “inhibited”. For the same compound, in [1] (Cohort D1, nadolol 1 mg up to 40 mg, Compound 03-5 3-12 mg), the “effect of nadolol on peripheral effects of Compound 03-5 (heart rate, glucose, potassium, tachycardia, tremor, palpitations)” value is “blocked”. For the same compound, in series [1] (Cohort D2, nadolol 3 mg, Compound 03-5 1-10 mg), the “effect of nadolol on peripheral effects of Compound 03-5 (heart rate, glucose, potassium)” value is “blocked”. In addition, the “effect of nadolol on heart rate increase, hyperglycemia and hypokalemia of Compound 03-5” value in series [1] (Cohort D2 and other cohorts, 1 mg nadolol pre-administered, Compound 03-5 oral up to 6 mg) is recorded as “substantially attenuated”. Further, in series [1] (pre-administration of 1 mg nadolol, earlier cohorts), the “effect of nadolol on effects of Compound 03-5 on blood glucose and potassium, tachycardia, tremor and palpitations” value is reported as “attenuation”. Moreover, the “effect of nadolol on pro-cognitive central effects of the β2-AR agonist” value in series [2] (low dose nadolol 3 mg) is given as “without inhibiting”.
Turning to `CC(C)(C)NCC(O)c1ccc(O)c(CO)c1` (centres unmarked) [salbutamol], the “effect on VVLT / number of words recalled correctly” value in series [3] was “improvements in cognition; also recorded: positive effects”.
Consider `CC(C)(C)NCC(O)c1cc(Cl)c(N)c(Cl)c1` (centres unmarked) [clenbuterol], for which, in series [4], the “glucose in the blood, change from baseline” value is recorded as “increases”; the “heart rate, change from baseline” value was “increases”; the “potassium in the blood, change from baseline” value was “decreases”. Further, the “accuracy of correctly identifying happy facial expressions (FERT)” value in series [5] is recorded as “statistically significant increase”. For the same compound, the “number of words correctly recalled, immediate verbal recall” value in [6] is “statistically significant increase”. The “cerebral perfusion increase as measured by CBF” value in series [7] (clenbuterol 40 μg) is “minimal increase”. In addition, in [7] (clenbuterol 80 and 160 μg), the “improvements in perfusion in brain areas relevant to neurodegenerative disorders” value is on record as roughly 25% and the “increase in cerebral perfusion, precentral gyrus” value is 20-40%. Further, the “cerebral perfusion increase as measured by CBF” value in [7] (clenbuterol doses below 30 μg) is “do not produce significant cerebral perfusion increases”. For the same compound, the “cerebral blood flow measured by MRI-ASL (FIG. 2)” value in series [7] is “increases”. The “cerebral blood flow from the baseline” value in [7] (patients, single dose clenbuterol 30 to 160 μg and/or nadolol 5 mg, tracked 3 days) is on record as “robust global increase”. The “increase in hippocampal perfusion, average” value in series [7] (single dose 80 μg clenbuterol, 6 healthy subjects, ROI hippocampus) is listed as 25%. The “cerebral blood flow (CBF) / cerebral perfusion relative to baseline” value in [7] (single dose clenbuterol 160 μg) is “global increases; also recorded: robust global increase; also recorded: robust, global increase”. The “cerebral blood flow (CBF) relative to baseline” value in series [7] (single dose clenbuterol 160 μg with nadolol 5 mg) is on record as “global increases; also recorded: robust global increase”. In series [7] (single dose clenbuterol 20 to 160 μg, tracked 3 days), the “cerebral blood flow (CBF) relative to baseline” value was “robust global increase”. Besides, the “effect on VVLT / number of words recalled correctly” value in [3] was “improvements in cognition; also recorded: positive effects”. The “performance in adaptive tracking (percent time dot kept within moving circle)” value in series [8] is recorded as “improved performance; also recorded: improves”. In series [8] (healthy subjects, preliminary data), the “cognition as measured by adaptive tracking and word recall” value is on record as “improves cognition”.
For the compound `CC(C)(C)NC[C@H](O)c1cccc(C#N)n1` [Compound 03-5, (S)-6-(2-(tert-butylamino)-1-hydroxyethyl)picolinonitrile], the “mean maximum increase in heart rate” value in [1] (6 mg Compound 03-5 after pre-administration of 1 mg nadolol) came out at 7 beats per minute. Further, in [1] (setting [10]), the blood potassium concentrations result is reported as “dose-dependent decreases” and the “heart rate, change from baseline (triplicate ECG)” value is “dose-dependent increases”. The “cerebral blood flow from baseline (precentral gyrus, hippocampus, thalamus, amygdala)” value in series [9] is “robust, global increases”. The “cognition, performance in CANTAB battery” value in series [2] (Cohort D2, Compound 03-5 1, 3 and 10 mg on Days 1, 2, 3 with 3 mg nadolol, healthy adults 55-75 years) was “Improvements in cognition; also recorded: improvements in performance”.
On to `CC(C)NCC(O)COc1cccc2[nH]ccc12` (centres unmarked) [pindolol], for which the “cerebral blood flow measured by MRI-ASL (FIG. 2)” value in series [7] was “lack of increase”.

The values are drawn from patent publication US20230414588A1, “COMPOSITIONS AND METHODS FOR TREATING PATIENTS WITH AMYOTROPHIC LATERAL SCLEROSIS (ALS)” (CURASEN THERAPEUTICS, INC., priority 2022, published 2023).
